Results: patent EP4678638A1, “NEW E3 UBIQUITIN LIGASE LIGAND, PROTEIN DEGRADATION AGENT AND USE THEREOF” (priority 2023, dated 2024)

Key:
MDA-MB-231 = assay: CCK-8 proliferation, MDA-MB-231; type: cell-based; details: Homo sapiens; Table B6, compounds designed based on the ALK inhibitors; MDA-MB-231 cells; read-out: Inhibitory activity (IC50, nM) on tumor cell proliferation, MDA-MB-231
Experimental: The tumor cells used herein were cultured in a cell culture medium listed in table A1 at 37°C in an incubator with 5% CO2. Prior to experimentation, all cell lines used were correctly identified by STR profiling, and tested negative for mycoplasma contamination using a mycoplasma detection kit through routine screenings. Table A1. Tumor cells and cell culture medium used in the present disclosure
IC50 values of the compounds of the present disclosure (including the compounds in Table 1, and compounds of examples) were measured using the Meilun Cell Counting Kit-8 kit from Dalian Meilun Biotech Co., Ltd. Assay details are as follows: tumor cells were seeded in a 96-well plate at a density listed in Table A2. After 24h, 100 µL of the inoculated cells were treated with 0.5µL of the compounds of the present disclosure (including the compounds in Tables 1 and 2, and compounds of examples) at 10 different successively decreasing concentrations (starting at the highest concentration of 10µM; 5-fold serial dilutions). After the cells were treated with the compounds of the present disclosure for a period of time, the cell viability detection reagent was added to the culture medium for cell viability assessment according to the instructions provided with the CCK-8 kit. […] The growth inhibition of the compounds of the present disclosure on cells was plotted by Prism Graphpad software, and the IC50 values of the compounds of the present disclosure were calculated therefrom. […] Seeding protocol and treatment time for tumor cells

ALK = target: T1, ALK (Homo sapiens, UniProt Q96SW2+Q9HC35+Q9UM73); assay: Western blot degradation of ALK (H2228 Cell); type: cell-based; details: Table D5
T1 construct: evaluate the effects of the compounds of the present disclosure on the expression of target proteins in cells; endogenous in cells; host or cells: H2228
T1 sequence (Q9HC35+Q9UM73 fused): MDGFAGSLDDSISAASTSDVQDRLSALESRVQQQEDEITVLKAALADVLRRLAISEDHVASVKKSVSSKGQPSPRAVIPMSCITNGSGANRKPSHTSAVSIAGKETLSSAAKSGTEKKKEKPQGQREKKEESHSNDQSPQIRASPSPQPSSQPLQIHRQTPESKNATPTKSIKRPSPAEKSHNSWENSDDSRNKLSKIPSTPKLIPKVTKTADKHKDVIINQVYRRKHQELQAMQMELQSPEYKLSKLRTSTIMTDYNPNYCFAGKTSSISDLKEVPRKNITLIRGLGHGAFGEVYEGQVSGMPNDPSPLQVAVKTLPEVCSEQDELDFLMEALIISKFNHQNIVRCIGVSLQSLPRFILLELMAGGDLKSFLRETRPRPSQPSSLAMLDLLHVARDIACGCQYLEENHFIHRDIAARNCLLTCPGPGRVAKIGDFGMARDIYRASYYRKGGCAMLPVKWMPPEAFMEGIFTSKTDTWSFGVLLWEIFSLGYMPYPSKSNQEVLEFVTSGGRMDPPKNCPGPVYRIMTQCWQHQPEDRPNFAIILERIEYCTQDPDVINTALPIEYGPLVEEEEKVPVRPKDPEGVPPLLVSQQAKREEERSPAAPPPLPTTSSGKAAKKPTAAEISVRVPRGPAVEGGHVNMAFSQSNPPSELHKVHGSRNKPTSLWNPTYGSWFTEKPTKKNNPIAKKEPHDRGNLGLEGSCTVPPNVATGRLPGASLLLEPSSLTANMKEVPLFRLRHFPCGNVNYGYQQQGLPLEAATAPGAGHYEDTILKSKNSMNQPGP
T1 sequence (Q96SW2 whole entry): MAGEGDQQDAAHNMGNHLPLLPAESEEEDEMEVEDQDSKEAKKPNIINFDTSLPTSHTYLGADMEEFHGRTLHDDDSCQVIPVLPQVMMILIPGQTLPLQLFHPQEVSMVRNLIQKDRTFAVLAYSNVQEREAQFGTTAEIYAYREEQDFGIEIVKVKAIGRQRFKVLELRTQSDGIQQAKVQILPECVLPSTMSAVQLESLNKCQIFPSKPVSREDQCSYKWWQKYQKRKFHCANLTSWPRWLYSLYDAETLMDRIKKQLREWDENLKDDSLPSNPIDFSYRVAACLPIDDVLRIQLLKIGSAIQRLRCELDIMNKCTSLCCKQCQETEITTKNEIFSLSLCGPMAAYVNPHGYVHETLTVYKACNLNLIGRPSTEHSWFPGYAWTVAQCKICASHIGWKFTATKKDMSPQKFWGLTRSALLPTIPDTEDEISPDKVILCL
T1 sequence (Q16531 whole entry partner): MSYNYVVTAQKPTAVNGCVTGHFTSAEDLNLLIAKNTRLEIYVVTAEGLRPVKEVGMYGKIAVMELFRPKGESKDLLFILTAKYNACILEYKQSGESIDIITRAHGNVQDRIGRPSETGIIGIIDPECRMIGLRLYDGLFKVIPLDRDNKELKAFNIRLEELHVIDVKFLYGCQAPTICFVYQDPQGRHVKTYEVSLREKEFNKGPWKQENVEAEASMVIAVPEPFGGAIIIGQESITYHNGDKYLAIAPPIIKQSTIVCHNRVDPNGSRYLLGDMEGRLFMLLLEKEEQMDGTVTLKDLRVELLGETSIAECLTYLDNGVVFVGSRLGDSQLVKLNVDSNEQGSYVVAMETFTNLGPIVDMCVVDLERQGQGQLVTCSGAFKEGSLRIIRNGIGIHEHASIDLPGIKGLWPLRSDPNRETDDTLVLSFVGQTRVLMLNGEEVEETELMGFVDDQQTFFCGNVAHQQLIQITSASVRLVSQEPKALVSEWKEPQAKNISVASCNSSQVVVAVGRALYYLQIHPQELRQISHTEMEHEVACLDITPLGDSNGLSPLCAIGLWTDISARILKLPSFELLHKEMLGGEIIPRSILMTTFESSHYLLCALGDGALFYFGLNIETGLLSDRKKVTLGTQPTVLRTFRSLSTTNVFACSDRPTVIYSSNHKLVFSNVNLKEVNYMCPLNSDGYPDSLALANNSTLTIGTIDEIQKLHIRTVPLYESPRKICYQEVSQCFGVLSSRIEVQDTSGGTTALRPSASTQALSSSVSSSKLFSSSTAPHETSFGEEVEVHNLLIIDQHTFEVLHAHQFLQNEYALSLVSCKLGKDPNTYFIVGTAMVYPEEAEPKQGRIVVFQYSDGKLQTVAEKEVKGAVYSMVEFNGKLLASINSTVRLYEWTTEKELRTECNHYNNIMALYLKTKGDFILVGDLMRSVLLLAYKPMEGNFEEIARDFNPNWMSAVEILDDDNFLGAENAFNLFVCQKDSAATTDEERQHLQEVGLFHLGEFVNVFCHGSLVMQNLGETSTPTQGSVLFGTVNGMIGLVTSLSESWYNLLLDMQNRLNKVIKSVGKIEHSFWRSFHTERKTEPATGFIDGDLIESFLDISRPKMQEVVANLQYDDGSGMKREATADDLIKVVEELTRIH
How it was run: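 Degradation is assessed by immunoblotting lysates of treated cells. Target bands are quantified by grayscale and normalised to an internal control, so degradation rate equals 100% minus % remaining.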

SR = assay: CCK-8 proliferation, SR; type: cell-based, Human; details: Homo sapiens; Table B6, compounds designed based on the ALK inhibitors; SR cells; read-out: Inhibitory activity (IC50, nM) on tumor cell proliferation, SR
How it was run: (§1)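 CCK-8 viability readout; IC50 from growth-inhibition curve fitting. Cells plated, dosed 24h later with a 10-point series, top 10µM, 5-fold steps. Culture at 37°C, 5% CO2.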

H2228 = assay: CCK-8 proliferation, NCI-H2228 (H2228); type: cell-based; details: Homo sapiens, NCI-H2228; Table B6, compounds designed based on the ALK inhibitors; H2228 cells; read-out: Inhibitory activity (IC50, nM) on tumor cell proliferation, H2228
How it was run: as §1

H1975 = assay: CCK-8 proliferation, NCI-H1975 (H1975); type: cell-based, Human; details: Homo sapiens, NCI-H1975; Table B6, compounds designed based on the ALK inhibitors; H1975 cells; read-out: Inhibitory activity (IC50, nM) on tumor cell proliferation, H1975
How it was run: as §1

MM.1S = assay: CCK-8 proliferation, MM.1S; type: cell-based; details: Homo sapiens, MM1.S; Table B6, compounds designed based on the ALK inhibitors; MM.1S cells; read-out: Inhibitory activity (IC50, nM) on tumor cell proliferation, MM.1S
How it was run: as §1

[1] = target: T2, human Cereblon WT GST-tagged protein (Homo sapiens, UniProt Q96SW2); assay: CRBN binding, HTRF (CEREBLON BINDING kit); details: Table II-2, CRBN binding screening, HTRF; for inhibition at 0.5 µM: read-out: Inhibition rate (%) at 0.5µM; for inhibition at 2 µM: read-out: Inhibition rate (%) at 2 µM
T2 construct: purchased CISBIO 64BDCRBNPEH
T2 sequence (Q96SW2 whole entry): as the sequence (Q96SW2 whole entry) above
How it was run: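 After 3 h at room temperature, emission at 665 and 620 nm was measured in a homogeneous time-resolved fluorescence format. Compounds competed with a Thalidomide-Re probe for GST-tagged wild-type human CRBN, which was labelled with a Eu anti-GST antibody.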

MCF7 = assay: CCK-8 proliferation, MCF7 (MCF-7); type: cell-based; details: Homo sapiens, MCF7; Table B6, compounds designed based on the ALK inhibitors; MCF-7 cells; read-out: Inhibitory activity (IC50, nM) on tumor cell proliferation, MCF-7
How it was run: as §1

IC50 (MDA-MB-231) [nM]	IC50 (H2228) [nM]	IC50 (H1975) [nM]	IC50 (MM.1S) [nM]	inhibition at 0.5 µM [1] [%]	inhibition at 2 µM [1] [%]	IC50 (MCF7) [nM]	SMILES	Degradation of substrate protein ALK (substrate protein remaining %) (ALK)	IC50 (SR) [nM]
500 to 1000	50 to 100	500 to 1000	500 to 1000	30 to 40	53 to 60		COc1cc(N2CCC(N(C)Cc3ccc(C4CCC(=O)NC4=O)cc3)CC2)ccc1Nc1ncc(Cl)c(Nc2ccccc2P(C)(C)=O)n1 (centres unmarked) [GT-03603, 3-(4-(((1-(4-((5-chloro-4-((2-(dimethylphosphoryl)phenyl)amino)pyrimidin-2-yl)amino)-3-methoxyphenyl)piperidin-4-yl)(methyl)amino)methyl)phenyl)piperidine-2,6-dione]	A (A is defined as 0% ≤ substrate protein remaining % ≤ 80%)	1 to 10
100 to 500	50 to 100	100 to 500				100 to 500	COc1cc(N2CCC(N3CCN(Cc4cccc(NC5CCC(=O)NC5=O)c4)CC3)CC2)ccc1Nc1ncc(Cl)c(Nc2ccccc2P(C)(C)=O)n1 (centres unmarked) [GT-07605, 3-((3-((4-(1-(4-((5-chloro-4-((2-(dimethylphosphoryl)phenyl)amino)pyrimidin-2-yl)amino)-3-methoxyphenyl)piperidin-4-yl)piperazin-1-yl)methyl)phenyl)amino)pip eridine-2,6-dione]	A (A is defined as 0% ≤ substrate protein remaining % ≤ 80%)	1 to 10
500 to 1000	50 to 100	100 to 500					COc1cc(N2CCC(N3CCN(Cc4ccnc(C5CCC(=O)NC5=O)c4)CC3)CC2)ccc1Nc1ncc(Cl)c(Nc2ccccc2P(C)(C)=O)n1 (centres unmarked) [GT-07612, 3-(4-((4-(1-(4-((5-chloro-4-((2-(dimethylphosphoryl)phenyl)amino)pyrimidin-2-yl)amino)-3-methoxyphenyl)piperidin-4-yl)piperazin-1-yl)methyl)pyridin-2-yl)piperidine-2,6-dione]	A (A is defined as 0% ≤ substrate protein remaining % ≤ 80%)	1 to 10
500 to 1000	50 to 100	500 to 1000				500 to 1000	COc1cc(N2CCC(N3CCN(Cc4ccc(C5CCC(=O)NC5=O)cn4)CC3)CC2)ccc1Nc1ncc(Cl)c(Nc2ccccc2P(C)(C)=O)n1 (centres unmarked) [GT-07613, 3-(6-((4-(1-(4-((5-chloro-4-((2-(dimethylphosphoryl)phenyl)amino)pyrimidin-2-yl)amino)-3-methoxyphenyl)piperidin-4-yl)piperazin-1-yl)methyl)pyridin-3-yl)piperidine-2,6-dione]	A (A is defined as 0% ≤ substrate protein remaining % ≤ 80%)	1 to 10
500 to 1000	100 to 500	500 to 1000				500 to 1000	COc1cc(N2CCC(N(C)Cc3cncc(C4CCC(=O)NC4=O)c3)CC2)ccc1Nc1ncc(Cl)c(Nc2ccccc2P(C)(C)=O)n1 (centres unmarked) [GT-07699, 3-(5-(((1-(4-((5-chloro-4-((2-(dimethylphosphoryl)phenyl)amino)pyrimidin-2-yl)amino)-3-methoxyphenyl)piperidin-4-yl)(methyl)amino)methyl)pyridin-3-yl)piperidine-2,6-dione]	A (A is defined as 0% ≤ substrate protein remaining % ≤ 80%)	10 to 50
100 to 500	100 to 500					50 to 100	COc1cc(N2CCN(Cc3cncc(C4CCC(=O)NC4=O)c3)CC2)ccc1Nc1ncc(Cl)c(Nc2ccccc2P(C)(C)=O)n1 (centres unmarked) [GT-07714, 3-(5-((4-(4-((5-chloro-4-((2-(dimethylphosphoryl)phenyl)amino)pyrimidin-2-yl)amino)-3-methoxyphenyl)piperazin-1-yl)methyl)pyridin-3-yl)piperidine-2,6-dione]	A (A is defined as 0% ≤ substrate protein remaining % ≤ 80%)	10 to 50
1000 to 5000	> 10000	> 10000	1000 to 5000			1000 to 5000	COc1cc(N2CCC(N3CCN(C)CC3)CC2)ccc1Nc1ncc(Cl)c(Nc2ccccc2P(C)(C)=O)n1 [brigatinib, reference compound]		100 to 500

Further lines, the compound ahead of its results:

SMILES	IC50 (MDA-MB-231) [nM]	IC50 (H2228) [nM]	IC50 (H1975) [nM]	IC50 (MM.1S) [nM]	inhibition at 0.5 µM [1] [%]	inhibition at 2 µM [1] [%]	IC50 (MCF7) [nM]	Degradation of substrate protein ALK (substrate protein remaining %) (ALK)	IC50 (SR) [nM]
COc1cc(N2CCC(N(C)Cc3ccc(C4CCC(=O)NC4=O)c(F)c3)CC2)ccc1Nc1ncc(Cl)c(Nc2ccccc2P(C)(C)=O)n1 (centres unmarked) [GT-03604, 3-(4-(((1-(4-((5-chloro-4-((2-(dimethylphosphoryl)phenyl)amino)pyrimidin-2-yl)amino)-3-methoxyphenyl)piperidin-4-yl)(methyl)amino)methyl)-2-fluorophenyl)piperidine-2,6-dione]	100 to 500	10 to 50	100 to 500	500 to 1000	20 to 30	53 to 60		A (A is defined as 0% ≤ substrate protein remaining % ≤ 80%)	1 to 10
CCc1cc2c(cc1N1CCC(N3CCN(Cc4ccc(N5CCC(=O)NC5=O)cc4F)CC3)CC1)C(C)(C)c1[nH]c3cc(C#N)ccc3c1C2=O [GT-07309, 8-(4-(4-(4-(2,4-dioxotetrahydropyrimidin-1(2H)-yl)-2-fluorobenzyl)piperazin-1-yl)piperidin-1-yl)-9-ethyl-6,6-dimethyl-11-oxo-6,11-dihydro-5H-benzo[b]carbazole-3-carbonitrile]	500 to 1000	100 to 500						A (A is defined as 0% ≤ substrate protein remaining % ≤ 80%)	10 to 50
CCc1cc2c(cc1N1CCC(N3CCN(Cc4cccc(N5CCC(=O)NC5=O)c4)CC3)CC1)C(C)(C)c1[nH]c3cc(C#N)ccc3c1C2=O [GT-07310, 8-(4-(4-(3-(2,4-dioxotetrahydropyrimidin-1(2H)-yl)benzyl)piperazin-1-yl)piperidin-1-yl)-9-ethyl-6,6-dimethyl-11-oxo-6,11-dihydro-5H-benzo[b]carbazole-3-carbonitrile]	500 to 1000	100 to 500					500 to 1000	A (A is defined as 0% ≤ substrate protein remaining % ≤ 80%)	1 to 10
Cc1cc(Nc2ncc(Cl)c(Nc3ccccc3S(=O)(=O)C(C)C)n2)c(OC(C)C)cc1C1CCN(Cc2ccc(C3CCC(=O)NC3=O)cc2)CC1 (centres unmarked) [GT-07364, 3-(4-((4-(4-((5-chloro-4-((2-(isopropylsulfonyl)phenyl)amino)pyrimidin-2-yl)amino)-5-isopropoxy-2-methylphenyl)piperidin-1-yl)methyl)phenyl)piperidine-2,6-dione]	500 to 1000	100 to 500		500 to 1000			100 to 500	A (A is defined as 0% ≤ substrate protein remaining % ≤ 80%)	10 to 50
COc1cc(N2CCC(N(C)Cc3cccc(NC4CCC(=O)NC4=O)c3)CC2)ccc1Nc1ncc(Cl)c(Nc2ccccc2P(C)(C)=O)n1 (centres unmarked) [GT-07692, 3-((3-(((1-(4-((5-chloro-4-((2-(dimethylphosphoryl)phenyl)amino)pyrimidin-2-yl)amino)-3-methoxyphenyl)piperidin-4-yl)(methyl)amino)methyl)phenyl)amino)piperidine-2,6-dione]	500 to 1000	100 to 500	500 to 1000				100 to 500	A (A is defined as 0% ≤ substrate protein remaining % ≤ 80%)	10 to 50
CCc1cc2c(cc1N1CCC(N3CCOCC3)CC1)C(C)(C)c1[nH]c3cc(C#N)ccc3c1C2=O [alectinib, reference compound]	1000 to 5000	5000 to 10000	1000 to 5000	1000 to 5000			5000 to 10000		10 to 50
